Here are results for 18 substances from US5332812A, “Solid-phase substrate containing modified heparin” (Board of Regents, The University of Texas System, priority 1991, dated 1994).

Data set [1] deals with B16 melanoma heparanase. In words: Enzymatic degradation of 3H-labeled glycosaminoglycans by B16 melanoma cell extract, analysed by high-speed gel permeation chromatography. The format is biochemical, mouse. The conditions noted are these: for Degradation (heparanase susceptibility): 3H-labeled glycosaminoglycan, cell extract 80 ug protein, pH 6.0, 6 hr at 37 C, 20 mM SAL, decrease in area of high Mr half of peak; for Cleavage by melanoma heparanase (in words): B16 melanoma cell extracts in presence of SAL, FIG. 2; for Percentage degradation of the original substrate: first 6 h incubation with B16 cell extract. An excerpt: The abilities of B16 cells to degrade HS from various origins and other purified glycosaminoglycans (heparin, chondroitin 4-sulfate, chondroitin 6-sulfate, dermatan sulfate, keratan sulfate, and hyaluronic acid) has been studied. […] HS metabolically labeled with [^35 S] sulfate was purified from basement membrane producing EHS sarcoma and PYS-2 carcinoma cells, and subendothelial matrices of bovine aortic endothelial (BAE) and corneal endothelial (BCE) cells (ibid). HS molecules purified from bovine lung and other glycosaminoglycans were labeled with tritium at their reducing termini using NaB[^3 H]4. […] In order to determine specific HS cleavage points, the newly formed reducing termini of HS fragments were investigated by: labeling with NaB[^3 H]4; hydrolysis to monosaccharides; and analysis of these saccharides by paper chromatography.
High-speed gel permeation chromatography. […] A one hundred microliter aliquot of sample solution was delivered into the injection port, and the chromatographic elution was performed with 0.2M sodium chloride at a flow rate of 1.0 ml/min at 55° C. […] In the analysis of radiolabeled materials, fractions corresponding to each 36 s of elution (0.6 ml) were collected and mixed with 3.0 ml of Liquiscint (National Diagnostics, Comerville, N.J.), and counted on a Beckman LS 2800 liquid scintillation counter (Beckman Instruments, Irvine, Calif.).
Enzymatic degradation of unmodified and modified HS. […] The incubation was carried out at 37° C. with gentle mixing, and was terminated by chilling the mixture to 4° C. and adding 20 ul of trichloroacetic acid to a final concentration of 5%. The supernatant was obtained by centrifugation at 9800×g for 5 min and it was subjected to analysis by high-speed gel permeation chromatography.
The effect of N-desulfation and N-acetylation of HS on its susceptibility to melanoma heparanase was assessed using HS labeled with tritium at the reducing terminal saccharide. […] HS labeled with tritium at the reducing end was N-desulfated by solvolysis with DMSO, and N-desulfated [^3 H]HS was then N-acetylated with acetic anhydride. These three ^3 H-labeled, chemically modified HS molecules were analyzed by cellulose acetate electrophoresis in 0.5M pyridine-acetate buffer, pH 5.0.
N-Desulfated and N-acetylated heparin.

Data set [2] concerns human melanoma heparanase. Kind of data set: Degradation by heparanase obtained from a human melanoma cell line. The class given is biochemical.
In data set [3] the test system is B16 melanoma heparanase. The conditions noted are these: labeled glycosaminoglycans, with or without D-saccharic acid 1,4-lactone; cited from earlier work.
For data set [4], the system named is human melanoma heparanase. In words: Inhibition of human melanoma heparanase. The class given is biochemical. The text has this: Properties of human melanoma heparanase.
Data set [5] concerns B16 melanoma heparanase. The conditions noted are these: cited from earlier work.

“Also recorded” adds a separate entry of the source.

Carboxyl reduced heparin: the “Degradation (heparanase susceptibility)” value in the data set with B16 melanoma heparanase [1] was “- (less than 5%)”.
Regarding Heparan sulfate [Heparan sulfate (HS)], in the data set on B16 melanoma heparanase [1], the “Degradation (heparanase susceptibility)” value was “+ (more than 80%)” and the “Cleavage by melanoma heparanase (in words)” value (from here on “Cleavage … (in words)”) is “cleaved by melanoma heparanase at high rates”. The “Degradation by human melanoma heparanase (in words)” value (“Degradation … (in words)” below) in data set [2] is “degrades heparan sulfate”. For the same substance, in the data set on B16 melanoma heparanase [3], the “Degradation by B16 cell extracts (earlier publications)” value (from here on “Degradation by B16 cell extracts”) is recorded as “degraded into fragments of characteristic molecular weight”.
Turning to Heparin, in the data set with B16 melanoma heparanase [1], the “Degradation (heparanase susceptibility)” value was “- (less than 5%)” and the “Percentage degradation of the original substrate” value is reported as “less than 5%”. In addition, the “Inhibition of melanoma heparanase (in words)” value in data set [4] is on record as “potent inhibitors”. The “Degradation by B16 cell extracts” value with B16 melanoma heparanase [3] is “essentially undegraded; also recorded: inactive”. Moreover, the “Inhibition of HS degradation / B16 melanoma heparanase (earlier publications)” value with B16 melanoma heparanase [5] was “inhibited HS degradation; also recorded: potent inhibitor”.
As to N,O-Desulfated HS, in the data set on B16 melanoma heparanase [1], the “Degradation (heparanase susceptibility)” value was “+ (more than 80%)”.
On to N,O-Desulfated and N-acetylated HS, for which the “Degradation (heparanase susceptibility)” value in the data set with B16 melanoma heparanase [1] was “+ (more than 80%)”.
Same read-out and setting: under N,O-Desulfated and N-acetylated heparin stands “± (5% to 15%)”; under N,O-Desulfated heparin, “- (less than 5%)”.
For N-Desulfated and N-methylated heparin, in the data set on B16 melanoma heparanase [1], the “Degradation (heparanase susceptibility)” value is given as “- (less than 5%)”.
Take N-Desulfated heparin: the “Degradation (heparanase susceptibility)” value with B16 melanoma heparanase [1] is “- (less than 5%)”.
“N-desulfated N-acetylated heparan sulfate [N-Desulfated and N-acetylated HS]”: in the data set with B16 melanoma heparanase [1], the “Degradation (heparanase susceptibility)” value was “+ (more than 80%)” and the “Cleavage … (in words)” value is given as “cleaved by melanoma heparanase at high rates”. In addition, in data set [2], the “Degradation … (in words)” value is “efficiently cleave”.
For “N-desulfated N-acetylated heparin [N-Desulfated and N-acetylated heparin]”, in the data set on B16 melanoma heparanase [1], the “Degradation (heparanase susceptibility)” value was “± (5% to 15%)” and the “Percentage degradation of the original substrate” value is on record as “approximately 20%”. For the same substance, in the data set with B16 melanoma heparanase [1] (prolonged incubation with B16 cell extract), the “Further cleavage after prolonged incubation” value was “not further cleaved”. For the same substance, the “Degradation … (in words)” value in data set [2] is on record as “only partially degrade”.
For the substance “N-desulfated heparan sulfate [N-Desulfated HS]”, in the data set with B16 melanoma heparanase [1], the “Degradation (heparanase susceptibility)” value was “+ (more than 80%)” and the “Cleavage … (in words)” value is “cleaved by melanoma heparanase at high rates”. In data set [2], the “Degradation … (in words)” value is recorded as “efficiently cleave”.
With chondroitin 4-sulfate, the “Degradation by B16 cell extracts” value in the data set with B16 melanoma heparanase [3] is given as “essentially undegraded”.
On to chondroitin 6-sulfate, for which the “Degradation by B16 cell extracts” value in the data set with B16 melanoma heparanase [3] is reported as “essentially undegraded”.
For dermatan sulfate, the “Degradation by B16 cell extracts” value with B16 melanoma heparanase [3] is reported as “essentially undegraded”.
With dextransulfate, the “Inhibition of melanoma heparanase (in words)” value in data set [4] is “potent inhibitors”.
For the substance hyaluronic acid, the “Degradation by B16 cell extracts” value in the data set on B16 melanoma heparanase [3] is on record as “essentially undegraded”.
With keratan sulfate, the “Degradation by B16 cell extracts” value in the data set with B16 melanoma heparanase [3] is “essentially undegraded”.
